In PMC12598698, “Synergistic Cancer Metabolic Therapy via Co-Delivery of 3‑Bromopyruvate and Temozolomide with a Supramolecular Shuttle” (ACS Applied Materials & Interfaces, 2025):
Several values for one entry are separate records, joined by “and”; a condition that tells them apart may be missing. Equal entries are not always repeated.

Key:
U-87 MG cells (2D) [1] = settings: highest tested concentration 250 μM, 72 h; ref previous work; cited from earlier work
Procedure: Combining drugs with different mechanisms of action targeting distinct cellular pathways can help overcome resistance and produce a synergistic effect, thereby enhancing the overall anticancer efficacy. The combined cytotoxic effect of the nanofiber NF-TMZ-BrP, cofunctionalized with BrP and TMZ (both at 5 μM), was evaluated in 2D and 3D-U87 cells at 24, 48, and 72 h. […] After 72 h, the cytotoxic effect became more pronounced, with appro ...

U-87 MG cells (2D) [2] = assay: 2D U-87 cell viability assay (PrestoBlue); format: cell-based, human
Procedure: Cells were seeded in 48-well plates at approximately 3 × 10^4 cells per well in DMEM culture medium supplemented with 10% FBS. U-87 MG cell lines from human brain were initially cultured in 25 cm^2 flasks, using DMEM supplemented with FBS 10%, P/S 2%, and L/GLUT 2 mM, in a humidified incubator (37 °C/5% CO2). After 24 h, once cells adhered, they were treated in parallel with NF-BrP (BrP, 5 μM), NF-BrP-TMZ (BrP and TMZ, 5 μM), and BrP at concentrations of 30, 50, 100, and 150 μM, for 24, 48, and 72 h. Untreated cells served as the controls. All experiments were performed under standard cell culture conditions (95% relative humidity, 5% CO2, 37 °C). At the end of each incubation time, cell viability was assessed using the PrestoBlue assay (ThermoFisher Scientific), according to the manufacturer’s protocol. Cells were incubated with the reagent for 1 h, and absorbance was obtained at 570 nm with 600 nm as the reference wavelength with a BioTek Synergy HT microplate reader. Results are expressed as the percentage of viable cells relative to the untreated controls.

[3] = system: mitochondria isolated from rat brain; assay: Mitochondrial respiration (Clark-type electrode); format: biochemical; settings: 5 μM, 8 min preincubation, 37 °C, ADP 300 μM
Procedure: Male Wistar rats (275–300 g) were obtained from Envigo RMS Srl (Udine, Italy). Animals were housed in a temperature-controlled environment (22 °C) under a 12:12 h light–dark cycle, with food and water available ad libitum. All procedures were conducted in strict accordance with European guidelines for the care and use of laboratory animals. Every attempt was made to reduce the suffering and discomfort experienced by the animals. Experimental protocols were approved by the Committee on the Ethics of Animal Experiments of the University of Naples Federico II (Italy) and the Italian Minister of Health (protocol number 776/2021-Pr). Rats were anesthetized by ip injection of tiopental (40 mg/100 body weight) and euthanized by decapitation. Brains were immediately excised, weighed, and processed for mitochondrial isolation, following the method described by Sumbalova et al. Briefly, brain tissues were immersed in ice-cold isolation buffer (330 mM sucrose, 10 mM Tris-HCl, 1 mM EDTA, and 2.5 g/L fatty acid-free BSA, pH 7.4) and homogenized using a Potter-Elvehjem homogenizer. […] Mitochondrial respiration rate was measured polarographically using a Clark-type electrode (Clark-type electrode, Oxygraph system, Hansatech Instruments Ltd., UK). […]

[4] = system: mitochondria isolated from rat brain; assay: EPR analysis of ROS production upon mitochondria respiration (Mito-TEMPO); format: biochemical; settings: succinate without rotenone, 37 °C, 8 min preincubation
Procedure: Investigation of the redox status in mitochondria was performed using the Mito-TEMPO paramagnetic spin probe, which is a mitochondria-penetrating nitroxide radical that allows evaluation of the level of ROS (mainly superoxides) produced during respiration. The same protocol as described in the previous subsection was followed with the addition of Mito-TEMPO (0.1 mM) during the preincubation with BrP, NF, or NF-Br. In this case succinate was used as a respiratory substrate in the absence of rotenone in order to allow the formation of ROS via the electron reverse from complex II to complex I. At predetermined time intervals, 20 μL of each sample was loaded into glass capillaries and flame-sealed. To guarantee thermal stability, the sealed capillaries were subsequently placed inside a standard 4 mm quartz EPR-sample tube that had been lightly lubricated with silicone oil. As described in a previous subsection, a 9 GHz Bruker Elexsys E500 spectrometer was used to record the EPR spectra. During acquisition, the sample temperature was maintained at 37 °C by directing thermostated nitrogen gas through a quartz dewar. Mito-TEMPO EPR signals were analyzed by double integration using the Bruker software package.

SMILES	reduction in cell viability by free TMZ (U-87 MG cells (2D) [1]) [%]	reduction of U-87 cell viability by free BrP at 150 μM (U-87 MG cells (2D) [2]; free drug 150 μM, prolonged exposure)	concentrations at which a decrease in U-87 cell viability is observed (U-87 MG cells (2D) [2]; free drug, 24, 48 and 72 h)	inhibition of ADP-stimulated respiration, pyruvate + malate [3]	inhibition of ADP-stimulated respiration, succinate + rotenone [3]	effect on mitochondrial ROS production (slope of mito-TEMPO decay) [4]
Cn1nnc2c(C(N)=O)ncn2c1=O [TMZ, temozolomide]	40	–	–	–	–	–
O=C(O)C(=O)CBr [BrP, 3-bromopyruvic acid]	–	no more than 20%	50 to 150 µM and > 50 µM	about 50%	about 50%	reduces the slope in a dose-dependent manner
